Reference: patent publication US20070128217A1 (priority 2003, published 2007)

How the values were obtained:
[1] = test system: antibodies in sera from SARS patients (sera 1a, 1b, 2, 6, 37, 62, London, SARS-yellow, SARS-green); format: binding, human; design: Binding of serum 6 to linear peptides of protein X1 of SARS-CoV Urbani / Binding of serum 37 to linear peptides of protein X1 of SARS-CoV Urbani / Binding of serum 6 to looped/cyclic peptide (PEPSCAN-ELISA) / Binding of serum 37 to looped/cyclic peptide (PEPSCAN-ELISA) / Binding of serum 37 to looped/cyclic peptides of protein X1 of SARS-CoV Urbani / Binding of serum 6 to linear peptides of protein X2 / Binding of serum 37 to linear peptides of protein X2 / Binding of serum 37 to looped/cyclic peptides of protein X2 of SARS-CoV Urbani / Binding of serum 6 to linear peptides of protein M of SARS-CoV Urbani / Binding of serum 37 to linear peptides of protein M of SARS-CoV Urbani / Binding of serum 6 to looped/cyclic peptides of protein M of SARS-CoV Urbani / Binding of serum 37 to looped/cyclic peptides of protein M of SARS-CoV Urbani / Binding of serum 6 to linear peptides of protein X3 of SARS-CoV Urbani / Binding of serum 37 to linear peptides of protein X3 of SARS-CoV Urbani / Binding of serum 37 to looped/cyclic peptides of protein X3 of SARS-CoV Urbani / Binding of serum 6 to linear peptides of protein X4 of SARS-CoV Urbani / Binding of serum 37 to linear peptides of protein X4 of SARS-CoV Urbani / Binding of serum 37 to looped/cyclic peptides of protein X4 of SARS-CoV Urbani / Binding of serum 6 to linear peptides of protein X5 of SARS-CoV Urbani / Binding of serum 37 to linear peptides of protein X5 of SARS-CoV Urbani / Binding of serum 37 to looped/cyclic peptides of protein X5 of SARS-CoV Urbani / Binding of serum 6 to linear peptides of protein N of SARS-CoV Urbani / Binding of serum 37 to linear peptides of protein N of SARS-CoV Urbani / Binding of serum 6 to linear peptide (PEPSCAN-ELISA) / Binding of serum 1a to looped/cyclic peptides of protein N of SARS-CoV Urbani / Binding of serum 1b to looped/cyclic peptides of protein N of SARS-CoV Urbani / Binding of serum 2 to looped/cyclic peptides of protein N of SARS-CoV Urbani / Binding of serum 6 to looped/cyclic peptides of protein N of SARS-CoV Urbani / Binding of serum 37 to looped/cyclic peptides of protein N of SARS-CoV Urbani / Binding of serum 62 to looped/cyclic peptides of protein N of SARS-CoV Urbani / Binding of serum London to looped/cyclic peptides of protein N of SARS-CoV Urbani / Binding of serum SARS-green to looped/cyclic peptides of protein N of SARS-CoV Urbani: unit not given here
[2] = test system: control sera (pooled serum of ten healthy LUMC hospital workers; commercial negative donor pooled serum from the Dutch bloodbank); format: binding, human; design: Binding of Control serum LUMC to linear peptides / Binding of Control serum Blood-bank to linear peptides / Binding of Control serum LUMC to looped peptides / Binding of Control Serum Blood-Bank to Looped peptides / Binding of Control serum LUMC to linear peptides of the protein M of SARS-CoV Urbani / Binding of Control serum Blood-bank to linear peptides of the protein M of SARS-CoV Urbani / Binding of Control serum LUMC to looped peptides of the protein M of SARS-CoV Urbani / Binding of Control Serum Blood-Bank to Looped peptides of the protein M of SARS-CoV Urbani: unit not given here
[3] = test system: rabbit serum obtained by immunizing a rabbit with the SARS-CoV strain Frankfurt 1; format: binding; design: Binding of a rabbit serum to linear peptides / Binding of a rabbit serum to looped peptides / Rabbit serum linear peptides / Rabbit serum looped peptides / Binding of a rabbit serum to linear peptides of protein N of SARS-CoV Urbani (Rabbit serum linear peptides) / Binding of a rabbit serum to looped/cyclic peptides of protein N of SARS-CoV Urbani (Rabbit serum looped peptides): unit not given here

Sequence	Binding of Control Serum Blood-Bank to Looped peptides [2]	Binding of Control serum Blood-bank to linear peptides [2]	Binding of Control serum LUMC to linear peptides [2]	Binding of Control serum LUMC to looped peptides [2]	Binding of serum 1a to linear peptides of protein X5 of SARS-CoV Urbani [1]	Binding of serum 1a to looped/cyclic peptides of protein X5 of SARS-CoV Urbani [1]	Binding of serum 1b to linear peptides of protein X5 of SARS-CoV Urbani [1]	Binding of serum 1b to looped/cyclic peptides of protein X5 of SARS-CoV Urbani [1]	Binding of serum 2 to linear peptides of protein X5 of SARS-CoV Urbani [1]	Binding of serum 2 to looped/cyclic peptides of protein X5 of SARS-CoV Urbani [1]	Binding of serum 6 to linear peptides of protein X5 of SARS-CoV Urbani [1]	Binding of serum 6 to looped/cyclic peptides of protein X5 of SARS-CoV Urbani [1]	Binding of serum 37 to linear peptides of protein X5 of SARS-CoV Urbani [1]	Binding of serum 37 to looped/cyclic peptides of protein X5 of SARS-CoV Urbani [1]	Binding of serum 62 to linear peptides of protein X5 of SARS-CoV Urbani [1]	Binding of serum 62 to looped/cyclic peptides of protein X5 of SARS-CoV Urbani [1]	Binding of serum London to linear peptides of protein X5 of SARS-CoV Urbani [1]	Binding of serum London to looped/cyclic peptides of protein X5 of SARS-CoV Urbani [1]	Binding of serum SARS-green to linear peptides of protein X5 of SARS-CoV Urbani [1]	Binding of serum SARS-green to looped/cyclic peptides of protein X5 of SARS-CoV Urbani [1]	further results
FVTIYSHLLLVAAGM	0.6	0.6	0.5	0.5	–	–	–	–	–	–	–	–	–	–	–	–	–	–	–	–	Binding of serum 1a to linear peptides of protein X1 of SARS-CoV Urbani [1]: 0.7; Binding of serum 1a to looped/cyclic peptide (PEPSCAN-ELISA) [1]: 0.5; Binding of serum 1b to linear peptides of protein X1 of SARS-CoV Urbani [1]: 0.5; Binding of serum 1b to looped/cyclic peptide (PEPSCAN-ELISA) [1]: 0.3; Binding of serum 2 to linear peptides of protein X1 of SARS-CoV Urbani [1]: 0.6; Binding of serum 2 to looped/cyclic peptide (PEPSCAN-ELISA) [1]: 0.3; Binding of serum 6 to linear peptides of protein X1 of SARS-CoV Urbani [1]: 0.4; Binding of serum 6 to looped/cyclic peptide (PEPSCAN-ELISA) [1]: 0.3; Binding of serum 37 to linear peptides of protein X1 of SARS-CoV Urbani [1]: 0.5; Binding of serum 37 to looped/cyclic peptide (PEPSCAN-ELISA) [1]: 0.5; Binding of serum 62 to linear peptides of protein X1 of SARS-CoV Urbani [1]: 0.5; Binding of serum 62 to looped/cyclic peptide (PEPSCAN-ELISA) [1]: 0.5; Binding of serum London to linear peptides of protein X1 of SARS-CoV Urbani [1]: 0.2; Binding of serum London to looped/cyclic peptide (PEPSCAN-ELISA) [1]: 0.2; Binding of serum SARS-green to linear peptides of protein X1 of SARS-CoV Urbani [1]: 0.3; Binding of serum SARS-green to looped/cyclic peptide (PEPSCAN-ELISA) [1]: 0.2; Binding of serum SARS-yellow to linear peptides of protein X1 of SARS-CoV Urbani [1]: 0.5; Binding of serum SARS-yellow to looped/cyclic peptide (PEPSCAN-ELISA) [1]: 0.3; Binding of a rabbit serum to linear peptides [3]: 0.1; Binding of a rabbit serum to looped peptides [3]: 0.5
GALIARCWYLHEGHQ	0.3	0.6	0.4	0.2	0.7	0.4	0.6	0.4	0.6	0.7	0.7	0.3	0.7	0.4	0.7	0.3	0.6	0.1	0.6	0.8	Binding of serum SARS-yellow to linear peptides of protein X5 of SARS-CoV Urbani [1]: 0.1; Binding of serum SARS-yellow to looped/cyclic peptides of protein X5 of SARS-CoV Urbani [1]: 0.3; Rabbit serum linear peptides [3]: 0.6; Rabbit serum looped peptides [3]: 0.0
GKVLPFHRWHTMVQT	0.5	0.6	0.3	0.5	0.8	0.8	0.0	0.5	0.6	0.6	0.3	0.4	0.5	0.6	0.8	0.5	0.8	0.3	0.3	0.5	Binding of serum SARS-yellow to linear peptides of protein X5 of SARS-CoV Urbani [1]: 0.1; Binding of serum SARS-yellow to looped/cyclic peptides of protein X5 of SARS-CoV Urbani [1]: 0.4; Rabbit serum linear peptides [3]: 0.0; Rabbit serum looped peptides [3]: 0.3
